Results as given in patent US9085576B2 (AMGEN INC., priority 2013, dated 2015).

Key:
Cathepsin D (Cat D) = Cathepsin D (Cat D) (Homo sapiens (Human), UniProt P07339); assay: In vitro enzymatic Cathepsin D (Cat D) FRET assay; assay type: biochemical; details: read-out: CatD IC50
BACE = BACE (Homo sapiens (Human), UniProt P56817); assay: In vitro BACE cell-based assay (Aβ40 in conditioned medium, sandwich ELISA)
[1] = target: Beta Secretase enzyme (BACE) (Homo sapiens (Human), UniProt P56817); assay: In vitro enzymatic BACE FRET assay; assay type: biochemical; details: read-out: BACE1 Enzyme assay IC50
Chain of Beta Secretase enzyme (BACE) (P56817 46-501): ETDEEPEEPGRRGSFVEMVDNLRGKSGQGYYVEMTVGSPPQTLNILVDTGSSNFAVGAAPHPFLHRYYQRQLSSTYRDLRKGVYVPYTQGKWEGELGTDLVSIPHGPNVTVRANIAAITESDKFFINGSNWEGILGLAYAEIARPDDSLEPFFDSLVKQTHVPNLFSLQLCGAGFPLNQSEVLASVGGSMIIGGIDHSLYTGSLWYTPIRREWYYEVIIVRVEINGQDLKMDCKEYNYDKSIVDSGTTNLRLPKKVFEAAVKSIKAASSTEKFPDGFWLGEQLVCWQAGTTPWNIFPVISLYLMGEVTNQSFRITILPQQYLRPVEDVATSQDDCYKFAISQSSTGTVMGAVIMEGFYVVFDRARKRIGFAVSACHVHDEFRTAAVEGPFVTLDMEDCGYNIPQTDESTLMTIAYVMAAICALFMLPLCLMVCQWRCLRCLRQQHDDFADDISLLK

Chain of Cathepsin D (Cat D) (P07339 65-412, species assumed): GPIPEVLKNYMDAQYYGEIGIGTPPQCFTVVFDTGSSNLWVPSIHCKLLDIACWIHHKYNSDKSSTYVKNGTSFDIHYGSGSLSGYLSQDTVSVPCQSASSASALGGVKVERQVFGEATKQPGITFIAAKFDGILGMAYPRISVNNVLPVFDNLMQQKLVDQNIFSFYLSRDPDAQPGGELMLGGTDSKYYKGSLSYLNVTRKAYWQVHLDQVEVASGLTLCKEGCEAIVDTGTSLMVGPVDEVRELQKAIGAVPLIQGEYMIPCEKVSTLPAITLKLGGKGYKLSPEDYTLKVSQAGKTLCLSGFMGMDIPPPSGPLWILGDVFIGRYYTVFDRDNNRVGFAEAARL
Chain of BACE (P56817 46-501, species assumed): as the sequence (P56817 46-501) above

| Compound | IC50 (Cathepsin D (Cat D)) | IC50 (BACE) | IC50 [1] |
| --- | --- | --- | --- |
| COC[C@H](C)NC(=O)c1ccc(F)c([C@]2(C(F)F)N=C(N)O[C@H]3C[C@H]32)c1 [Example 427, 3-((1S,5R,6S)-3-Amino-5-(difluoromethyl)-2-oxa-4-azabicyclo[4.1.0]hept-3-en-5-yl)-4-fluoro-N—((S)-1-methoxypropan-2-yl)benzamide] | > 400 µM | > 15.6 µM | > 40 µM |
| C=C1CC(CNc2ccc(F)c([C@@]3(C(F)F)N=C(N)O[C@@H]4C[C@@H]43)c2)C1 [Example 375, (1R,5S,6R)-5-(difluoromethyl)-5-(2-fluoro-5-(((3-methylenecyclobutyl)methyl)amino)phenyl)-2-oxa-4-azabicyclo[4.1.0]hept-3-en-3-amine] | 78.9 µM | 2.53 µM | 6 µM |
| COc1cnc(C(=O)Nc2cccc([C@@]3(C(F)F)N=C(N)O[C@@H]4C[C@@H]43)c2)cn1 [Example 438, N-(3-((1R,5S,6R)-3-amino-5-(difluoromethyl)-2-oxa-4-azabicyclo[4.1.0]hept-3-en-5-yl)phenyl)-5-methoxypyrazine-2-carboxamide] | 793 µM | 0.126 µM | 0.5 µM |
| NC1=N[C@@](c2cc(NC(=O)c3cc(Cl)cs3)ccc2F)(C(F)F)[C@H]2C[C@H]2O1 [Example 177, N-(3-((1R,5S,6R)-3-amino-5-(difluoromethyl)-2-oxa-4-azabicyclo[4.1.0]hept-3-en-5-yl)-4-fluorophenyl)-4-chlorothiophene-2-carboxamide] | 762 µM | 0.373 µM | 0.185 µM |
| N#Cc1cnc(C(=O)Nc2ccc(Cl)c([C@@]3(CF)N=C(N)O[C@@H]4C[C@@H]43)c2)c(F)c1 [Example 450, N-(3-((1R,5S,6R)-3-amino-5-(fluoromethyl)-2-oxa-4-azabicyclo[4.1.0]hept-3-en-5-yl)-4-chlorophenyl)-5-cyano-3-fluoropicolinamide] | > 400 µM | 0.00817 µM | 0.0503 µM |
| C[C@H](F)c1nc(C(=O)Nc2ccc(F)c([C@@]3(C(F)F)N=C(N)O[C@@H]4C[C@@H]43)c2)co1 (mixture of isomers) [Example 175, N-(3-((1R,5S,6R)-3-amino-5-(difluoromethyl)-2-oxa-4-azabicyclo[4.1.0]hept-3-en-5-yl)-4-fluorophenyl)-2-(1-fluoroethyl)oxazole-4-carboxamide 2,2,2-trifluoroacetate] | 1340 µM | 2.48 µM | 2.88 µM |
| Cc1cc(OC(F)F)cnc1C(=O)Nc1cc(Cl)c(F)c([C@@]2(CF)N=C(N)O[C@@H]3C[C@@H]32)c1 [Example 87, N-(3-((1R,5S,6R)-3-amino-5-(fluoromethyl)-2-oxa-4-azabicyclo[4.1.0]hept-3-en-5-yl)-5-chloro-4-fluorophenyl)-5-(difluoromethoxy)-3-methylpicolinamide] | 164 µM | 0.0135 µM | 0.0323 µM |
| NC1=N[C@](CF)(c2cc(NC(=O)c3ccc(Cl)cn3)cc(F)c2F)[C@H]2C[C@H]2O1 [Example 142, N-(3-(((1R,S),(5S,R),(6R,S))-3-amino-5-(fluoromethyl)-2-oxa-4-azabicyclo[4.1.0]hept-3-en-5-yl)-4,5-difluorophenyl)-5-chloropicolinamide] |  | 0.0263 µM |  |
| N#Cc1cnc2c(Nc3ccc(Cl)c([C@]4(C(F)F)N=C(N)O[C@H]5C[C@H]54)c3)ncc(F)c2c1 [Example 351, 8-((3-((1S,5R,6S)-3-amino-5-(difluoromethyl)-2-oxa-4-azabicyclo[4.1.0]hept-3-en-5-yl)-4-chlorophenyl)amino)-5-fluoro-1,7-naphthyridine-3-carbonitrile] | > 14.8 µM |  | 2.81 µM |
| NC1=N[C@@](CF)(c2cc(NC(=O)c3ccc(Cl)cn3)ccc2Cl)[C@@H]2C[C@@H]2O1 [Example 271] | > 400 µM |  | 24.1 µM |
| C#CCOc1cnc(C(=O)Nc2ccc(Cl)c([C@]3(C(F)F)N=C(N)O[C@H]4C[C@H]43)c2)cn1 (racemic) [Example 219, N-(3-((1(S,R),5(R,S),6(S,R))-3-amino-5-(difluoromethyl)-2-oxa-4-azabicyclo[4.1.0]hept-3-en-5-yl)-4-chlorophenyl)-5-(prop-2-yn-1-yloxy)pyrazine-2-carboxamide] | 65.8 µM |  | 0.0063 µM |
| N#Cc1cnc2c(Nc3ccc(Cl)c([C@]4(C(F)F)N=C(N)O[C@H]5C[C@H]54)c3)ncc(F)c2c1 [Example 349, 8-((3-((1(R,S),5(S,R),6(R,S))-3-amino-5-(difluoromethyl)-2-oxa-4-azabicyclo[4.1.0]hept-3-en-5-yl)-4-chlorophenyl)amino)-5-fluoro-1,7-naphthyridine-3-carbonitrile] | 88.4 µM |  | 0.0829 µM |
| CC#Cc1cncc(-c2ccc(F)c([C@@]3(CF)N=C(N)O[C@@H]4C[C@@H]43)c2)c1 [Example 431, (1(S,R),5(R,S),6(S,R))-5-(2-fluoro-5-(5-(prop-1-yn-1-yl)pyridin-3-yl)phenyl)-5-(fluoromethyl)-2-oxa-4-azabicyclo[4.1.0]hept-3-en-3-amine] | 91.6 µM |  | 4.69 µM |
| NC1=N[C@@](c2cc(N[C@@H]3CCc4cc(Br)cnc43)ccc2F)(C(F)F)[C@H]2C[C@H]2O1 (single isomer, unassigned) [Example 380, (1R,5S,6R)-5-(5-(((R)-3-bromo-6,7-dihydro-5H-cyclopenta[b]pyridin-7-yl)amino)-2-fluorophenyl)-5-(difluoromethyl)-2-oxa-4-azabicyclo[4.1.0]hept-3-en-3-amine or (1R,5S,6R)-5-(5-(((S)-3-bromo-6,7-dihydro-5H-cyclopenta[b]pyridin-7-yl)amino)-2-fluorophenyl)-5-(difluoromethyl)-2-oxa-4-azabicyclo[4.1.0]hept-3-en-3-amine] | 336 µM |  | 0.143 µM |
| NC1=N[C@@](c2cc(-n3cc(C#CC4CC4)cn3)ccc2F)(C(F)F)[C@H]2C[C@H]2O1 [Example 435] | 316 µM |  | 8.62 µM |
| Cc1cc(OC(F)F)cnc1C(=O)Nc1ccc(Cl)c(C2(C(F)F)N=C(N)O[C@@H]3C[C@@H]32)c1 (some centres unmarked) [Example 209] |  | 0.0765 µM | 0.0908 µM |
| N-(3-((1R,5S,6R)-3- amino-5- (difluoromethyl)-2-oxa- 4-azabicyclo[4.1.0]hept- 3-en-5-yl)-4-fluoro-5- methylphenyl)-4-chloro- 2-(fluoromethyl) benzamide [Example 444] | 171 µM |  | 0.0105 µM |
| Cc1cc(C#N)cnc1C(=O)Nc1cc(F)c(Cl)c([C@]2(CF)N=C(N)O[C@H]3C[C@H]32)c1 (racemic) [Example 137, N-(3-((1R/S,5S/R,6R/S)-3-amino-5-(fluoromethyl)-2-oxa-4-azabicyclo[4.1.0]hept-3-en-5-yl)-4-chloro-5-fluorophenyl)-5-cyano-3-methylpicolinamide] | 539 µM |  | 0.0448 µM |

Next, values leading:

| IC50 (Cathepsin D (Cat D)) | IC50 (BACE) | IC50 [1] | Compound |
| --- | --- | --- | --- |
| 190 µM | 0.0209 µM | 0.0611 µM | COc1ccc(C(=O)Nc2ccc(Cl)c([C@@]3(C(F)F)N=C(N)O[C@@H]4C[C@@H]43)c2)nc1 [Example 100, N-(3-((1R,5S,6R)-3-amino-5-(difluoromethyl)-2-oxa-4-azabicyclo[4.1.0]hept-3-en-5-yl)-4-chlorophenyl)-5-methoxypicolinamide] |
|  | 0.184 µM | 1.99 µM | COc1cnc(C(=O)Nc2ccc(F)c([C@@]3(C)N=C(N)O[C@@H]4C[C@@H]43)n2)cn1 [Example 322, N-(6-((1R,5S,6R)-3-amino-5-methyl-2-oxa-4-azabicyclo[4.1.0]hept-3-en-5-yl)-5-fluoropyridin-2-yl)-5-methoxypyrazine-2-carboxamide] |
| > 400 µM | > 15.6 µM | > 40 µM | COC[C@@]1(c2cc(NC(=O)c3ccc(Cl)cn3)ccc2F)N=C(N)O[C@H]2C[C@H]21 [Example 83, N-(3-((1 S,5R,6S)-3-amino-5-(methoxymethyl)-2-oxa-4-azabicyclo[4.1.0]hept-3-en-5-yl)-4-fluorophenyl)-5-chloropicolinamide] |
|  | 0.0575 µM | 0.108 µM | N#Cc1cnc2c(c1)CC[C@H]2Nc1ccc(F)c([C@@]2(C(F)F)N=C(N)O[C@@H]3C[C@@H]32)c1 [Example 401, (R)-7-((3-((1R,5S,6R)-3-amino-5-(difluoromethyl)-2-oxa-4-azabicyclo[4.1.0]hept-3-en-5-yl)-4-fluorophenyl)amino)-6,7-dihydro-5H-cyclopenta[b]pyridine-3-carbonitrile] |
|  | 0.318 µM | 0.976 µM | N#Cc1cnc2c(c1)CC[C@@H]2Nc1ccc(F)c([C@@]2(C(F)F)N=C(N)O[C@@H]3C[C@@H]32)c1 (single isomer, unassigned) [Example 402] |
|  | 0.0074 µM | 0.183 µM | COc1cc(Cl)cnc1C(=O)Nc1ccc(Cl)c([C@@]2(CF)N=C(N)O[C@@H]3C[C@@H]32)c1 [Example 297, N-(3-((1R,5S,6R)-3-amino-5-(fluoromethyl)-2-oxa-4-azabicyclo[4.1.0]hept-3-en-5-yl)-4-chlorophenyl)-5-chloro-3-methoxypicolinamide] |
| 56.6 µM |  | > 40 µM | COc1cnc2c(Nc3ccc(F)c([C@]4(C)N=C(N)O[C@@H]5C[C@@H]54)c3)nccc2c1 [Example 338, (1R,5R,6R)-5-(2-fluoro-5-((3-methoxy-1,7-naphthyridin-8-yl)amino)phenyl)-5-methyl-2-oxa-4-azabicyclo[4.1.0]hept-3-en-3-amine] |
|  | 0.0179 µM | 0.0638 µM | Cc1cc(C(F)F)cnc1C(=O)Nc1ccc(F)c([C@@]2(CF)N=C(N)O[C@@H]3C[C@@H]32)c1 [Example 201, N-(3-((1R,5S,6R)-3-amino-5-(fluoromethyl)-2-oxa-4-azabicyclo[4.1.0]hept-3-en-5-yl)-4-fluorophenyl)-5-(difluoromethyl)-3-methylpicolinamide] |
| > 400 µM |  | 3.35 µM | COc1cnc2c(Nc3ccc(F)c([C@@]4(C)N=C(N)O[C@H]5C[C@H]54)c3)nccc2c1 [Example 337, (1S,5S,6S)-5-(2-fluoro-5-((3-methoxy-1,7-naphthyridin-8-yl)amino)phenyl)-5-methyl-2-oxa-4-azabicyclo[4.1.0]hept-3-en-3-amine] |
